What was measured:
[1] = system: binocular zone of V1 of Lynx1 knockout and wild-type mice; assay: Ocular dominance plasticity after short-term monocular deprivation, extracellular recording in vivo (contralateral bias index); design: species or system mouse; conditions: for effect on adult ocular dominance plasticity in Lynx1 knockout mice (in words): concurrent with short-term MD
Description: (§1) Eyelid margins were trimmed by iris scissor and eyes sutured shut under isoflurane anesthesia. Eyes were closed 4-5 days for short term MD (STMD), from P19 to >P60 for long term MD (CP-LTMD), and from P19 to P33 for recovery studies.
Electrophysiological recording was performed under nembutal/chlorprothixene anesthesia using standard techniques for mice (T. K. Hensch et al., Science 282: 1504 (1998); J. A. Gordon, M. P. Stryker, J Neurosci 16: 3274 (1996). Ocular dominance in the binocular zone of each mouse was calculated as a contralateral bias index (CBI): [(n1−n7)+2/3(n2−n6)+⅓(n3−n5)+N]/2N, where N=total number of cells and nx=number of cells corresponding to ocular dominance score of x (J. A. Gordon, M. P. Stryker, J Neurosci 16, 3274 (1996)). For statistical comparison of OD distributions, normalized OD scores of single neurons were plotted as cumulative distribution for each experimental group. OD score was computed by PSTH analysis of peak to baseline spiking activity in response to each eye: {[Peak(ipsi)−baseline(ipsi)]−[Peak(contra)-baseline(contra)]}/{[Peak(ipsi)-baseline(ipsi)]+[Peak(contra)-baseline(contra)]}(T. Pizzorusso et al., Science, 298: 1248 (2002)).

[2] = system: V1 of wild-type mice; assay: Recovery from amblyopia: visual acuity by visual evoked potentials in V1 after long-term MD and eye reopening; assay type: in vivo, mouse; conditions: WT mice
Description: as §1

Compound	contralateral bias index (CBI) ([1]; adult Lynx1 KO mice, adult MD, focal infusion into V1 by osmotic minipump)	effect on adult ocular dominance plasticity in Lynx1 knockout mice (in words) ([1]; adult Lynx1 KO mice)	contralateral bias index (CBI) ([1]; adult Lynx1 KO mice, no MD, with mecamylamine)	contralateral bias index (CBI) ([1]; adult Lynx1 KO mice, short-term MD with concurrent nAChR antagonist (systemic i.p. daily or cortical minipump infusion))	contralateral bias index (CBI) ([1]; adult WT mice, short-term MD with concurrent mecamylamine)	Visual acuity (VEP) ([2]; LTMD P19 to P33, deprived eye reopened, 0.1 mg/kg i.p. daily from P45, recorded >P60)	Visual acuity (VEP) ([2]; no MD, with AChEI)
CN1C(=O)CN=C(c2ccccc2)c2cc(Cl)ccc21 [Diazepam]	0.67	abolished adult plasticity					
CNC1(C)C2CCC(C2)C1(C)C (centres unmarked) [mecamylamine]		sufficient to prevent adult plasticity	0.68	0.68	0.69		
CNC(=O)Oc1ccc2c(c1)[C@]1(C)CCN(C)[C@@H]1N2C [physostigmine]						0.48±0.06 cyc/deg	0.47±0.02 cyc/deg
